According to ChEMBL document CHEMBL1201862, “PubChem BioAssay data set” (2004):
Active and inactive are the calls of the source.

How the values were obtained:
Vero = Vero cell cytotoxicity, cytotoxicity control for flavivirus capping enzyme inhibitors (AID 588742); format: functional; conditions: Chlorocebus sabaeus
Genome polyprotein = Genome polyprotein (dengue virus type 2, UniProt P29990); assay: Dengue-2 NS5 methyltransferase inhibitors, primary screen, biochemical, confirmation dose response (AID 588689); format: functional
[1] = target: Photoreceptor-specific nuclear receptor (Homo sapiens, UniProt Q9Y5X4); format: functional, cell-based;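 note: CHO-S cells with Gal4-NCOR and VP16-NR2E3 two-hybrid luciferase reporter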
Sequence of Photoreceptor-specific nuclear receptor (Q9Y5X4 whole entry, the tested form may be a part): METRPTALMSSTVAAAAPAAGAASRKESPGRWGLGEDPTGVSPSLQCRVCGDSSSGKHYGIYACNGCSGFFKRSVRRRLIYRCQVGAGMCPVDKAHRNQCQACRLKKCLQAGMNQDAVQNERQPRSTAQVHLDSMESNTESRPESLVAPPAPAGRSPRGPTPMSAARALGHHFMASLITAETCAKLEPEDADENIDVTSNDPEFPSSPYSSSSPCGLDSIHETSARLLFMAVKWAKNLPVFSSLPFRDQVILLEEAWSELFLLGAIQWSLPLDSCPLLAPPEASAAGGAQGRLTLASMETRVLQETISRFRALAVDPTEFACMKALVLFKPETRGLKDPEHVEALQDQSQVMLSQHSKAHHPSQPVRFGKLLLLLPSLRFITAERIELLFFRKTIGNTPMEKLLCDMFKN

HeLa = assay: HeLa cell cytotoxicity, dose response, cytotoxicity control for MITF activator project, CellTiter-Glo luminescence, cherry-pick samples (AID 540259); format: functional, cell-based; conditions: Homo sapiens
H4 = assay: Luminescence Cell-Based Dose Response HTS to Identify Activators of 5'UTR Stem-Loop Driven Prion Protein mRNA Translation in H4 Neuroglioblastoma Cells. [Related pubchem assays: 1829 (Project Summary), 1814 (Primary HTS)]; format: functional; conditions: Homo sapiens
[2] = target: Mitochondrial peptide methionine sulfoxide reductase (Bos taurus, UniProt P54149); format: functional;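 note: absorbance read-out, biochemical high-throughput dose-response screen for MsrA inhibitors, confirmatory; recombinant bovine MsrA coupled to E. coli TrxB with NADPH and selenocystamine; potency is for inhibitors of MsrA activity on DMSO substrate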
Sequence of Mitochondrial peptide methionine sulfoxide reductase (P54149 whole entry): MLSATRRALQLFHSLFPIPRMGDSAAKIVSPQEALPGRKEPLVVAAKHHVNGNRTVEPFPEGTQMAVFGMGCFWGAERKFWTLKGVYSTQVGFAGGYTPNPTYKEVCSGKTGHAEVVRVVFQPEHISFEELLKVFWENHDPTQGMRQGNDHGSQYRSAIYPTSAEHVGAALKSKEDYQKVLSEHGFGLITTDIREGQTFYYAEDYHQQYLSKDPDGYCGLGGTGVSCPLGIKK

[3] = target: Delta-type opioid receptor (Homo sapiens, UniProt P41143); assay: Counterscreen for agonists of heterodimerization of the mu 1 (OPRM1) and delta 1 (OPRD1) opioid receptors: Luminescence-based cell-based high throughput dose response assay to identify agonists of OPRD1 homodimerization. [Related pubchem assays (depositor defined):AID504326, AID504355, AID504692, AID504904, AID504905]; format: functional
Sequence of Delta-type opioid receptor (P41143 whole entry): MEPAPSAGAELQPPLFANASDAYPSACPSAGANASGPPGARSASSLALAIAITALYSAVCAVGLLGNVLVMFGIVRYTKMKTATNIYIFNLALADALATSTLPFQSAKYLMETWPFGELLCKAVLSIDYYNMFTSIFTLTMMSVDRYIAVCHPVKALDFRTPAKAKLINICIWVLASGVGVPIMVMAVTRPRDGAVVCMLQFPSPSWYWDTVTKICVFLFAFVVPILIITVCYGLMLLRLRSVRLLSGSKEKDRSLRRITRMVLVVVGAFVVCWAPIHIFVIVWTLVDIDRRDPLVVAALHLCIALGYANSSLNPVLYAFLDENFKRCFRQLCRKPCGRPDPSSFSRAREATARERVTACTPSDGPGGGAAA

Mu-type opioid receptor = Mu-type opioid receptor (Homo sapiens, UniProt P35372); assay: Counterscreen for agonists of heterodimerization of the mu 1 (OPRM1) and delta 1 (OPRD1) opioid receptors: Luminescence-based cell-based high throughput dose response assay to identify agonists of OPRM1 homodimerization.; format: functional;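 note: U2OS cells expressing OPRM1 and beta-arrestin as split beta-galactosidase partners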
Sequence of Mu-type opioid receptor (P35372 whole entry): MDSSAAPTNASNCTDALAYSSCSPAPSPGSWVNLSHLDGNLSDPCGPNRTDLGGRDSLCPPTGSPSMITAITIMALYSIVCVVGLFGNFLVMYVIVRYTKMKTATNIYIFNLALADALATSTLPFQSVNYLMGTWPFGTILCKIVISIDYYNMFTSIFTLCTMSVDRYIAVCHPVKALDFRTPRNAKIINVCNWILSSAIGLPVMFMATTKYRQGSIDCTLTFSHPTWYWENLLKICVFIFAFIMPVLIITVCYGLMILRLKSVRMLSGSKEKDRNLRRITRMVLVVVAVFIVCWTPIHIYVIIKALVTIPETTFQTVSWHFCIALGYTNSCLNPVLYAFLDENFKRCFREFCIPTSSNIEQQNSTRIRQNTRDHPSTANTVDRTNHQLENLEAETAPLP

[4] = target: 5-hydroxytryptamine receptor 5A (Homo sapiens, UniProt P47898); assay: Counterscreen for agonists of OPRM1-OPRD1 heterodimerization: luminescence-based cell-based high throughput dose response assay to identify agonists of 5-hydroxytryptamine (serotonin) 5A receptor (HTR5A). [Related pubchem assays (depositor defined):AID504326, AID504355, AID504692, AID504904, AID504905]; format: functional
Sequence of 5-hydroxytryptamine receptor 5A (P47898 whole entry): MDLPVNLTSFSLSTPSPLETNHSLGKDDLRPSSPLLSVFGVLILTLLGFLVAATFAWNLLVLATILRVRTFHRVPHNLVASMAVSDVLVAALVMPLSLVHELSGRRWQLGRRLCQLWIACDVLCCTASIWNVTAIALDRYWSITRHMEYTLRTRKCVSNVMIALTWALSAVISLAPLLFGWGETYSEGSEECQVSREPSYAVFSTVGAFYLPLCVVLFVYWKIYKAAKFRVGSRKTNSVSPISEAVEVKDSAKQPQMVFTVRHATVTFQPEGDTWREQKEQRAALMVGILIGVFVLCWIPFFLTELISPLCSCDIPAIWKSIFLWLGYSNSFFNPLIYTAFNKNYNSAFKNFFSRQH

Protein skinhead-1 = target: T1, Protein skinhead-1 (Caenorhabditis elegans, UniProt P34707); format: functional
T1 sequence (P34707 whole entry): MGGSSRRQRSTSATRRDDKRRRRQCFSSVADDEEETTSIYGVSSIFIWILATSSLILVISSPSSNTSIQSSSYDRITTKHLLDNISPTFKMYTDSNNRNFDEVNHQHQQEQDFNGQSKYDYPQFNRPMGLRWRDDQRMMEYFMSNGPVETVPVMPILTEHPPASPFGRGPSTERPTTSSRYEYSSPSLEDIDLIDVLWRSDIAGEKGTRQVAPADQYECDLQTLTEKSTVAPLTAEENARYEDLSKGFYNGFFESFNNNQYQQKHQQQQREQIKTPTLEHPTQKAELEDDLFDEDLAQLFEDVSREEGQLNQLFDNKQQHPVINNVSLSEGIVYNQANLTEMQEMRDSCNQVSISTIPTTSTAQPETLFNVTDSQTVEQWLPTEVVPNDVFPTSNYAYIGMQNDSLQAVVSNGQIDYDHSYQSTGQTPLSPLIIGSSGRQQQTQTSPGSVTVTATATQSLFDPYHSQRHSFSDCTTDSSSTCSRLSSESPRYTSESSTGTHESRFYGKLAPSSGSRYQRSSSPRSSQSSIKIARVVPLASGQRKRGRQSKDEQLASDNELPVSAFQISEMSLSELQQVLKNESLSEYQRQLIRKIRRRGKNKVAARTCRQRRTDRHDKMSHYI

[5] = target: T2, Short transient receptor potential channel 4 (Mus musculus, UniProt Q9QUQ5); assay: mouse TRPC4 channel activators, dose response, cell-based, HEK293 TRPC4/mu-opioid, Fluo-4 calcium (AID 434937); format: functional
T2 sequence (Q9QUQ5 whole entry): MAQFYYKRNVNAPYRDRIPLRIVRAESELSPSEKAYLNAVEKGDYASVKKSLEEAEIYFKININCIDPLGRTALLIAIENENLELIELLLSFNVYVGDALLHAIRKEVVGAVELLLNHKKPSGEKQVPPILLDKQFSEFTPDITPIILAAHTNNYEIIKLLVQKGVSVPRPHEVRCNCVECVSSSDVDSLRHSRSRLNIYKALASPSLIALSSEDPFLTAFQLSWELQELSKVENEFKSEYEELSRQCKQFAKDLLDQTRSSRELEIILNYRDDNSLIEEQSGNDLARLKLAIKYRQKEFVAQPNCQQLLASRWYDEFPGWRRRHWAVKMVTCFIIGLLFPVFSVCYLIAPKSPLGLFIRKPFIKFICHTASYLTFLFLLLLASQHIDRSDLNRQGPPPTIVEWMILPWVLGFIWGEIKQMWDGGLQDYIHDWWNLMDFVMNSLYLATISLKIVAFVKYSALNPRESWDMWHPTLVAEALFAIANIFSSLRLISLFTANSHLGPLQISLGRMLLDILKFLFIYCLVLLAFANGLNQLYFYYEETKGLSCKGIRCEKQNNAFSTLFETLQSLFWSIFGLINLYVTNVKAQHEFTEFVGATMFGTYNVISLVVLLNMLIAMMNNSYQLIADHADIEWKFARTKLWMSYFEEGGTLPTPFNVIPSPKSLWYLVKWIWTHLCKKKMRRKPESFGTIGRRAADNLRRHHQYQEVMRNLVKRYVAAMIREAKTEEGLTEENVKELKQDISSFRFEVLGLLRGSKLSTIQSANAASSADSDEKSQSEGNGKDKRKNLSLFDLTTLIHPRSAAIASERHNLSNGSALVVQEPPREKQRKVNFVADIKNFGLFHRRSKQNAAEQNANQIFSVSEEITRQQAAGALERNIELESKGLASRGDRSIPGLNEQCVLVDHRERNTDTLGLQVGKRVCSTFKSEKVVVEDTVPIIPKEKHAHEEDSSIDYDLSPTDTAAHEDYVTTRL

Escherichia coli [6] = assay: microbe, parasite or virus in culture
Escherichia coli [7] = assay: microbe, parasite or virus in culture; remark: listed apart in the source
[8] = target: T3, Aryl hydrocarbon receptor (Homo sapiens, UniProt P35869); conditions: Potency;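 note: confirmatory quantitative high-throughput screen measuring activation of the AhR signaling pathway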
T3 sequence (P35869 whole entry): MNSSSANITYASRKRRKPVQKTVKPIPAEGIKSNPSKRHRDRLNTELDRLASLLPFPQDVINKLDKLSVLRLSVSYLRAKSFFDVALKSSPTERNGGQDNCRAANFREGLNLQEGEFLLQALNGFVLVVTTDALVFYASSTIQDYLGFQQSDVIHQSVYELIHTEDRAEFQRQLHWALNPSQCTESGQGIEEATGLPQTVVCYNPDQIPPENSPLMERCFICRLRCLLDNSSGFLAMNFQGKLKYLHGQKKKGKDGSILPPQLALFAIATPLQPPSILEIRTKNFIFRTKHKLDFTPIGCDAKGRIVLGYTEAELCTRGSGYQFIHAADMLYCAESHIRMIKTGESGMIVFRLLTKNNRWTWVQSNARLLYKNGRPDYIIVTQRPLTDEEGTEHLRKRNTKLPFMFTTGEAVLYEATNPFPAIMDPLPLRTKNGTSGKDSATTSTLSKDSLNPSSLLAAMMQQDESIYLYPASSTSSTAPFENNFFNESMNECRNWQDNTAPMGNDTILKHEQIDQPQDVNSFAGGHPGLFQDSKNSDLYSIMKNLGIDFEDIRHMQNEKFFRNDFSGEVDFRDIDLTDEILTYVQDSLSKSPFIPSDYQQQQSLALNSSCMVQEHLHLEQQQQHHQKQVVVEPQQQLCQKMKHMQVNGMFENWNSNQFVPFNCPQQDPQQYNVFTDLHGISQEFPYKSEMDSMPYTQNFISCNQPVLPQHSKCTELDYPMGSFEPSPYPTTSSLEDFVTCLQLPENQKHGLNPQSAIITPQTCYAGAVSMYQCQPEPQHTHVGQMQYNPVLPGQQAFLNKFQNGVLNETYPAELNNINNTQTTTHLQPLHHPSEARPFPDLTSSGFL

[9] = target: Serine/threonine-protein kinase pim-1 (Homo sapiens, UniProt P11309); format: functional
Sequence of Serine/threonine-protein kinase pim-1 (P11309 whole entry): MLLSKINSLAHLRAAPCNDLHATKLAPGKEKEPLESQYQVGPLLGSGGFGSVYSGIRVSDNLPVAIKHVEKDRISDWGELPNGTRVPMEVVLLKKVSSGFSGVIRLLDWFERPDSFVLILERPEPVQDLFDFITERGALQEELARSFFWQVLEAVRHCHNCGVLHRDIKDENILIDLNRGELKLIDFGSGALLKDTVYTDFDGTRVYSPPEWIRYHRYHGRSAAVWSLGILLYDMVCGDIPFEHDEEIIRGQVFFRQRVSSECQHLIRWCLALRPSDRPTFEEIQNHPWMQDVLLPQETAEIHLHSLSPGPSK

[10] = target: Cell division cycle 7-related protein kinase (Homo sapiens, UniProt O00311); format: functional;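 note: value obtained from a kinome-wide kinase panel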
Sequence of Cell division cycle 7-related protein kinase (O00311 whole entry): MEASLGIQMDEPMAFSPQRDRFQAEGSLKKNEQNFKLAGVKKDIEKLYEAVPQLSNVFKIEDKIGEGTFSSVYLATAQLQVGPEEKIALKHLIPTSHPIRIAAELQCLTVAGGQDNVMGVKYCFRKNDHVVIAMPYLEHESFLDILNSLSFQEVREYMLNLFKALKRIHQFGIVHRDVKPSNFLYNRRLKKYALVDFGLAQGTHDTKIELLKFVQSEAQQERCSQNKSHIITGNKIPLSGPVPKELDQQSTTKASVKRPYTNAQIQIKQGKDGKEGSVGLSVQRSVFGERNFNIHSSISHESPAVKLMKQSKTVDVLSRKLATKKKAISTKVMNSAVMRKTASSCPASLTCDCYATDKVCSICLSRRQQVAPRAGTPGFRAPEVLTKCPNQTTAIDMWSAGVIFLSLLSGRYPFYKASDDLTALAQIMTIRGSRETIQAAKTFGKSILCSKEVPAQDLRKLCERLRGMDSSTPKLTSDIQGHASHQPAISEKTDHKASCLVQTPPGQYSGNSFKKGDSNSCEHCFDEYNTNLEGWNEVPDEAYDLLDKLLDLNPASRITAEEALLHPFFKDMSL

[11] = target: Homeodomain-interacting protein kinase 2 (Homo sapiens, UniProt Q9H2X6); format: functional;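 note: measured within a kinome-wide kinase profiling panel, HIPK2 being one panel member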
Sequence of Homeodomain-interacting protein kinase 2 (Q9H2X6 whole entry): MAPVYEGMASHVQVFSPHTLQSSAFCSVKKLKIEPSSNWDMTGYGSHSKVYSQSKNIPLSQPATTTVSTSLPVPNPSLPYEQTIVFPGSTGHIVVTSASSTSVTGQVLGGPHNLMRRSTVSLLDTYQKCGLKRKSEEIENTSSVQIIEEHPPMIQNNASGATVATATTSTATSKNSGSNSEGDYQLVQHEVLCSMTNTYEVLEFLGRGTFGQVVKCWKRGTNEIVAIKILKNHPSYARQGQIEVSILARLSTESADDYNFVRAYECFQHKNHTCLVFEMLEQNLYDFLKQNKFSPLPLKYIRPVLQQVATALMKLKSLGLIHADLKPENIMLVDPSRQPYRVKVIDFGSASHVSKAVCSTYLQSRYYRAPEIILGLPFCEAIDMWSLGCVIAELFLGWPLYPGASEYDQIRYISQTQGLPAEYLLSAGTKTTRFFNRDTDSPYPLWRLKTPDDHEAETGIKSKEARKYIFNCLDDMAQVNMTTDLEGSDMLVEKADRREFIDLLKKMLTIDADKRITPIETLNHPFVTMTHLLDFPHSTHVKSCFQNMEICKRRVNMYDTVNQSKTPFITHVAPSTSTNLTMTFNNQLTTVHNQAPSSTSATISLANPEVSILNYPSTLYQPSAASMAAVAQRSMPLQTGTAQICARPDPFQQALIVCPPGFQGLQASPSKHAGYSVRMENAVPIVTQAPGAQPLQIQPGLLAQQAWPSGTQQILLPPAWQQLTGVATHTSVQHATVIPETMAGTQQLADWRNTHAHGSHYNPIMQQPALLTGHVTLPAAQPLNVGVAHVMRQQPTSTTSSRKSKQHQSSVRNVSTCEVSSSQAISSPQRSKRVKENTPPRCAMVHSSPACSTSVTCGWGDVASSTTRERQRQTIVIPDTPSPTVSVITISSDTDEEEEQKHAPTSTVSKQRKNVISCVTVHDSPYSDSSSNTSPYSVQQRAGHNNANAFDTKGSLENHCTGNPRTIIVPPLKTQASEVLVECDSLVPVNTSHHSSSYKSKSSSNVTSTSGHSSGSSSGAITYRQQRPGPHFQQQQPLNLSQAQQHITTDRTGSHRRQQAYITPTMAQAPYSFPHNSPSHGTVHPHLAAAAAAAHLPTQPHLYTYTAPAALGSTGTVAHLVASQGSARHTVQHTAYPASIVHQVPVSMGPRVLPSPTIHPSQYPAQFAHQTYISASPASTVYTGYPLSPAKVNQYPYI

[12] = target: MAP kinase-interacting serine/threonine-protein kinase 2 (Homo sapiens, UniProt Q9HBH9); format: functional
Sequence of MAP kinase-interacting serine/threonine-protein kinase 2 (Q9HBH9 whole entry): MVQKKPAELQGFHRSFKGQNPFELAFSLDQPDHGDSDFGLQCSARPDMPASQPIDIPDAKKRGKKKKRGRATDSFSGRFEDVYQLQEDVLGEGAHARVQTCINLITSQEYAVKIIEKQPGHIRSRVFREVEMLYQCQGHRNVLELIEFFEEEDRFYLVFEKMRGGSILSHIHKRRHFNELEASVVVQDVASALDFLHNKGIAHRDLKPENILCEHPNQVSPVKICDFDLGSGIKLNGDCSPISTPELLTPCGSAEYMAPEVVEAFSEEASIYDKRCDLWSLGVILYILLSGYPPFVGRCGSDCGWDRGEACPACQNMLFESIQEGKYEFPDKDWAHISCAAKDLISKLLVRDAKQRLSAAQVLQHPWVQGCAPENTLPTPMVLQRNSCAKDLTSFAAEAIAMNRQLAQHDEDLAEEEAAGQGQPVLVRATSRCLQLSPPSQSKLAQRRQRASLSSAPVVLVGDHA

[13] = target: T4, Interleukin-1 receptor-associated kinase 4 (Homo sapiens, UniProt Q9NWZ3); format: functional
T4 sequence (Q9NWZ3 whole entry): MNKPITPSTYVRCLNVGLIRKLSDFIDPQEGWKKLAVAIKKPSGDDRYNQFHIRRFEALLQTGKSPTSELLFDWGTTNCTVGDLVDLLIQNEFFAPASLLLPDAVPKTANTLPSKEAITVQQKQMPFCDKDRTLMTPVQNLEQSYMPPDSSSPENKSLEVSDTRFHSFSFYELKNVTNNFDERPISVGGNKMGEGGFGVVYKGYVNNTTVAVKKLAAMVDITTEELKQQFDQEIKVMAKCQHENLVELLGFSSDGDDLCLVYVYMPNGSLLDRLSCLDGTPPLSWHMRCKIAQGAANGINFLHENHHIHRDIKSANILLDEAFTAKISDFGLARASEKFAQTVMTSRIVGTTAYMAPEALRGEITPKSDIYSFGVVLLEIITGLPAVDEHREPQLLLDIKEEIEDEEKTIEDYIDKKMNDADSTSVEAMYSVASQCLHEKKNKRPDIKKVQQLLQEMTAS

[14] = target: Glycogen synthase kinase-3 beta (Homo sapiens, UniProt P49841); format: functional;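 note: value comes from a broad kinome profiling panel, with GSK3B as the panel member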
Sequence of Glycogen synthase kinase-3 beta (P49841 whole entry): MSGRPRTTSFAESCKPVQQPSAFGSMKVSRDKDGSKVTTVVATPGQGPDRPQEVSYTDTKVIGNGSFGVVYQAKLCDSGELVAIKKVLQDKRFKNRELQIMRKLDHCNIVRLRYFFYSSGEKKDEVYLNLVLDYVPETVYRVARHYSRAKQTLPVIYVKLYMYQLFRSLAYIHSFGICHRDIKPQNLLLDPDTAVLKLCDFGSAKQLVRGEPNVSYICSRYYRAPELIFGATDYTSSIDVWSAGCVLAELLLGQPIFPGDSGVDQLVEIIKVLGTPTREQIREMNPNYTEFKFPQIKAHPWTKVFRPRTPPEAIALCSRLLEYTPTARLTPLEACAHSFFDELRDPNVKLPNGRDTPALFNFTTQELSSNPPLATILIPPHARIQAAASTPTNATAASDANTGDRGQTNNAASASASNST

[15] = target: Dual specificity protein kinase CLK4 (Homo sapiens, UniProt Q9HAZ1); format: functional
[16] = target: Mitogen-activated protein kinase kinase kinase kinase 4 (Homo sapiens, UniProt O95819); format: functional
[17] = target: DNA dC->dU-editing enzyme APOBEC-3G (Homo sapiens, UniProt Q9HC16); assay: APOBEC3G deaminase inhibitors, SAR follow-up, biochemical, fluorescence, single-stranded DNA substrate (AID 602136); format: functional; conditions: read-out: IC50_Mean
[18] = target: DNA dC->dU-editing enzyme APOBEC-3A (Homo sapiens, UniProt P31941); assay: SAR analysis of small molecule inhibitors of APOBEC3A DNA Deaminase via a fluorescence-based single-stranded DNA deaminase assay.; format: functional; conditions: read-out: IC50_Mean
Sequence of DNA dC->dU-editing enzyme APOBEC-3A (P31941 whole entry): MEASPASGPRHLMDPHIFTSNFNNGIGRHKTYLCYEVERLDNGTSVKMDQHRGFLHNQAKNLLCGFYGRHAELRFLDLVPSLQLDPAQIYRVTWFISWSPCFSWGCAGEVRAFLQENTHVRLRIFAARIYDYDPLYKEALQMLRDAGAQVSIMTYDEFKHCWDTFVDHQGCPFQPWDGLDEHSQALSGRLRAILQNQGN

[19] = target: cAMP-dependent protein kinase catalytic subunit alpha (Homo sapiens, UniProt P17612); format: functional
[20] = system: Streptococcus sp. 'group A'; assay: growth inhibition of control SK(-) GAS strain, dose response, counter-screen for streptokinase expression inhibitor project, luminescence, kanamycin, BacTiterGlo, confirmation (AID 1900); format: functional, organism-based
Streptococcus = assay: Group A Streptococcus viability loss, dose response, counter-screen for streptokinase expression inhibitor project, luminescence, BacTiterGlo (AID 1915); format: functional, organism-based;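 note: potency for reduction of bacterial viability or growth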

## Cc1ccc([C@@H]2CC=C(C(=O)O)[C@H](c3ccc(C(C)(C)C)cc3)N2S(=O)(=O)c2ccc(C)cc2)cc1
Vero
  CC50: > 40 µM (active)
Genome polyprotein
  IC50: 39.8 µM (active)
[1]
  IC50: 5.74 µM (active)

## CC(NS(=O)(=O)c1cccc(Cl)c1)C(=O)Nc1ccc(-c2nc3ccccc3s2)cc1 (stereo not given)
HeLa
  AC50: > 350 µM (inactive)

## Cc1ccc(NC(=O)c2ccccc2Cl)c(Cl)c1
HeLa
  AC50: 84.8 µM (active)

## Cc1ccc(Nc2c([N+](=O)[O-])nn(-c3ccccc3)[n+]2[O-])c(C)c1
H4
  EC50: 9.37 µM (active)
[2]
  IC50: 155 µM (inactive)

## OC(CN1CCN(C(c2ccccc2)c2ccccc2)CC1)c1ccccc1 (stereo not given)
[3]
  EC50: > 92.6 µM (inactive)
Mu-type opioid receptor
  EC50: > 92.6 µM (inactive)
[4]
  EC50: > 92.6 µM (inactive)
Protein skinhead-1
  IC50: > 100 µM (inactive)

## CCOC(=O)C1(CCOC)CCN(Cc2ccccc2-c2ccco2)CC1
[5]
  EC50: 0.299 µM (active)
[3]
  EC50: > 92.5 µM (inactive)
Mu-type opioid receptor
  EC50: > 92.5 µM (inactive)
[4]
  EC50: > 92.5 µM (inactive)

## CC(C)(C)c1ccc(S(=O)(=O)N2CCSC2)cc1
Escherichia coli [6]
  AC50: 37.1 µM (active)
Escherichia coli [7]
  AC50: 31.3 µM (active)

## CCOP(=S)(OCC)Oc1nc(Cl)n(C(C)C)n1
[8]
  AC50: 39.8 µM (inconclusive)

## Cc1ccccc1-c1c(-c2ccc3[nH]nc(C)c3c2)nnn1Cc1ccccc1
[9]
  Ki: 0.251 µM (active)
[10]
  Ki: 0.00251 µM (active)
[11]
  Ki: 2.51 µM (active)
[12]
  Ki: 0.158 µM (active)
[13]
  Ki: > 10 µM (inactive)
[14]
  Ki: 0.0126 µM (active)
[15]
  Ki: 0.00794 µM (active)
[16]
  Ki: 0.158 µM (active)

## COCc1nnc(NC(=O)Cc2ccc(Cl)cc2)s1
[17]
  IC50: > 99 µM (inactive)
[18]
  IC50: > 99 µM (inactive)

## FC(F)(F)c1ccccc1CNc1nccc(-c2c[nH]c3ncccc23)n1
[9]
  Ki: 0.501 µM (active)
[10]
  Ki: 0.00126 µM (active)
[11]
  Ki: 0.02 µM (active)
[12]
  Ki: 0.01 µM (active)
[13]
  Ki: 0.2 µM (active)
[14]
  Ki: 0.0126 µM (active)
[19]
  Ki: 0.0631 µM (active)
[16]
  Ki: 0.02 µM (active)

## CN1CCN(c2c(F)cc3c(=O)c(C(=O)O)cn4c3c2OCN4C)CC1 [MARBOFLOXACIN]
[20]
  EC50: 2.79 µM (active)
Streptococcus
  EC50: 3.07 µM (active)
Escherichia coli [6]
  AC50: 1.12 µM (active)
Escherichia coli [7]
  AC50: 4.63 µM (active)
